Assay results taken from PMC5754923 (Journal of medicinal chemistry, 2017).
pEC50, pIC50, pKd: −log10 of the molar value. Entries after “also recorded” stand apart in the source; their conditions may differ. Where two headings read alike, the source gives them in different places.

Assays:
K562 cells [1] = settings: statement of the discussion, not tested here; ref not given; cited from earlier work
[2] = molecular target: T1, full intracellular domain of BTN3A1 (Homo sapiens, UniProt O00481); settings: known Kd, ref not given; cited from earlier work
Vγ9Vδ2 T cells [3] = settings: expansion from peripheral blood; ref [10]; cited from earlier work
Vγ9Vδ2 T cells [4] = test: Expansion of Vγ9Vδ2 T cells from peripheral blood; type: cell-based, human; settings: for Stimulation of Vγ9Vδ2 T cell proliferation: 0.1 µM, CD3+/γδ TCR+ population; for Fold difference from salt: prodrug versus unprotected salt
K562 cells [5] = test: Vγ9Vδ2 T cell mediated lysis of K562 cells; settings: for Fold difference from salt, lysis: 2 hour treatment/4 hour co-culture
T cells = test: Toxicity towards the T cells in the expansion assay; type: cell-based, human
K562 cells [6] = test: K562 proliferation; type: cell-based, human
[7] = molecular target: T1, full intracellular domain of BTN3A1; test: Isothermal titration calorimetry; type: binding; settings: for Binding to BTN3A1: purified BTN3A1, direct titration
[8] = HPLC and HPLC-MS analysis in aqueous acetonitrile; type: physicochemical
[9] = presence of 10-fold higher compound 8
[10] = presence of 100-fold molar excess of compound 8

T1 sequence (O00481 272-513 limits assumed): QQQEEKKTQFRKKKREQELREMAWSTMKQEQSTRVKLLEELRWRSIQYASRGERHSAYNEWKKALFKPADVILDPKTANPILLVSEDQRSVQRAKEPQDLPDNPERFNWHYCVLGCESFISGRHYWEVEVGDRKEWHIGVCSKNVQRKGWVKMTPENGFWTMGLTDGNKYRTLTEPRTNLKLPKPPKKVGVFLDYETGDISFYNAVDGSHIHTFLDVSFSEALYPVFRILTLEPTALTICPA

O=P(O)(O)C(O)(Cc1cccnc1)P(=O)(O)O [risedronate]
Direct toxicity (K562 cells [1]): do exhibit direct toxicity

C/C(=C\CP(=O)(O)OP(=O)(O)O)CO [C-HMBPP, (E)-4-hydroxy-3-methyl-but-2-enyl phosphonophosphate]
pKd [2]: 5.72

C/C(=C\CCP(=O)(O)O)CO [Compound 3]
pEC50 (Vγ9Vδ2 T cells [3]): 5.40

CC(C)=CCCP(=O)(CP(=O)(OCOC(=O)C(C)(C)C)OCOC(=O)C(C)(C)C)OCOC(=O)C(C)(C)C (centres unmarked) [Compound 11, (((((4-Methylpent-3-en-1-yl)((pivaloyloxy)methoxy)phosphoryl)methyl)phosphoryl)bis(oxy))bis(methylene) bis(2,2-dimethylpropanoate)]
Agonist / biological activity (Vγ9Vδ2 T cells [4]): No measurable agonist activity
Fold difference from HMBPP (Vγ9Vδ2 T cells [4]; EC50 ratio): <0.0000051x
pEC50 (Vγ9Vδ2 T cells [4]; Homo sapiens, T-cell): < 4.00
Fold difference from salt, lysis (K562 cells [5]): >14x
pIC50 (T cells; Homo sapiens, T-cell): < 4.00
Fold difference from HMBPP, direct K562 toxicity (K562 cells [6]; 72 hour treatment): >10x
Fold difference from salt, direct K562 toxicity (K562 cells [6]; 72 hour treatment): >10x

C=C(C)CCOP(=O)(O)OP(=O)(O)O [IPP, isopentenyl diphosphate]
Direct toxicity (K562 cells [1]): not directly toxic

CC(C)=CCCP(=O)([O-])CP(=O)([O-])[O-].[Na+].[Na+].[Na+] [Compound 8, Sodium (((4-methylpent-3-en-1-yl)oxidophosphoryl)methyl)phosphonate]
pEC50 (Vγ9Vδ2 T cells [4]; Homo sapiens, T-cell): < 4.00
pEC50 (K562 cells [5]; Homo sapiens, K562, 2 h, read-out: EC50, lysis of K562 cells by T cells): < 4.00
pIC50 (T cells; Homo sapiens, T-cell): < 4.00
Competition with HMBPP binding ([7]; 10x and 100x compound 8): capable of disrupting HMBPP binding in a dose-dependent manner
Binding to BTN3A1 [7]: too low to be measured directly; also recorded: intermediate affinity

C/C(=C\CCP(=O)(OCOC(=O)C(C)(C)C)OCOC(=O)C(C)(C)C)CO [Compound 2]
Direct toxicity (K562 cells [1]): not directly toxic

C/C(=C\CCP(=O)(CP(=O)(OCOC(=O)C(C)(C)C)OCOC(=O)C(C)(C)C)OCOC(=O)C(C)(C)C)CO (centres unmarked) [Compound 4, (E)-(((((5-Hydroxy-4-methylpent-3-en-1-yl)((pivaloyloxy)methoxy)phosphoryl)methyl)phosphoryl)bis(oxy))bis(methylene) bis(2,2-dimethylpropanoate)]
Stimulation of Vγ9Vδ2 T cell proliferation (Vγ9Vδ2 T cells [4]): strongly stimulated proliferation
Fold difference from salt (Vγ9Vδ2 T cells [4]; EC50 ratio): 630 x
Fold difference from salt (Vγ9Vδ2 T cells [4]; EC50 ratio, listed as POM3-CC-HMBPP (4)): 630x (versus 10)
pEC50 (Vγ9Vδ2 T cells [4]; Homo sapiens, T-cell): 7.39
Fold difference in cellular activity between compound 4 and 11 (K562 cells [5]): 26 fold
Fold difference from salt, lysis (K562 cells [5]): 150 x
Fold difference from salt, lysis (K562 cells [5]; listed as POM3-CC-HMBPP (4)): 146x
Concentrations with toxicity towards the T cells (T cells; Figure 2B): ≥ 10 µM
Binding to BTN3A1 [7]: did not bind
Stability in aqueous acetonitrile [8]: some minor isomerization
Fold difference from HMBPP, direct K562 toxicity (K562 cells [6]; 72 hour treatment): >29x
Fold difference from salt, direct K562 toxicity (K562 cells [6]; 72 hour treatment): >29x

C/C(=C\COP(=O)(O)OP(=O)(O)O)CO [HMBPP, (E)-4-hydroxy-3-methyl-but-2-enyl diphosphate, reference compound]
Stimulation of Vγ9Vδ2 T cell proliferation (Vγ9Vδ2 T cells [4]): strongly stimulated proliferation
Hill slope, K562 lysis (K562 cells [5]; four parameter non-linear regression): 0.69
TΔS of HMBPP binding ([7]; absence of compound 8): -4.54 kcal/mol
ΔH of HMBPP binding ([7]; absence of compound 8): -12.4 kcal/mol
TΔS of HMBPP binding [7, 9]: -1.1 kcal/mol
ΔH of HMBPP binding [7, 9]: -9.32 kcal/mol
TΔS of HMBPP binding [7, 10]: +28 kJ/mol
ΔH of HMBPP binding [7, 10]: -1.65 kcal/mol
Direct toxicity (K562 cells [6]): not directly toxic

COP(=O)(CC/C=C(\C)CO)CP(=O)(OC)OC (centres unmarked) [Compound 9, Dimethyl (E)-(((5-hydroxy-4-methylpent-3-en-1-yl)(methoxy)phosphoryl)methyl)phosphonate]
Agonist / biological activity (Vγ9Vδ2 T cells [4]): nor is biologically active
pEC50 (Vγ9Vδ2 T cells [4]; PBMC exposed 72 hours, grown 11 days, flow cytometry): < 4.00
pIC50 (T cells; toxicity in T cell expansion assay): < 4.00
Binding to BTN3A1 [7]: neither binds to the protein
pIC50 (K562 cells [6]; read-out: IC50, direct K562 toxicity, 72 hour treatment): < 4.00

O=P(O)(O)C(O)(Cn1ccnc1)P(=O)(O)O [zoledronate]
Direct toxicity (K562 cells [1]): do exhibit direct toxicity

C/C(=C\CCP(=O)([O-])CP(=O)([O-])[O-])CO.[Na+].[Na+].[Na+] [Compound 10, Sodium (E)-(((5-hydroxy-4-methylpent-3-en-1-yl)oxidophosphoryl)methyl)phosphonate]
pEC50 (Vγ9Vδ2 T cells [4]; Homo sapiens, T-cell): 4.59
pIC50 (T cells; Homo sapiens, T-cell): < 4.00
Binding to BTN3A1 [7]: intermediate affinity
